The source of these data is patent US20090312373A1, “METHODS FOR THE TREATMENT OF CANCER USING PIPERLONGUMINE AND PIPERLONGUMINE ANALOGS” (The General Hospital Corporation, priority 2008, published 2009).

Series [1] concerns immortalized human breast epithelial cells. As to the kind of experiment: DNA damage markers in immortalized human breast epithelial cells. It counts as cell-based. As to conditions: taxol 10 nM. An excerpt:
The conditions and time of exposure are indicated in the legend of the figure.

Series [2] in a line: Precipitation on dilution of DMSO solution. It counts as physicochemical. As to conditions: diluted 1:10 in phosphate buffered saline or water. Here is the method:
To avoid toxicity, piperlongumine should be used at less than 2.5 mg/kg in mice. The skilled person will know how to formulate the compounds of the invention in accordance with the solubility by selection of appropriate carriers, solubilizers, etc.

Series [3] has as its system EJ bladder carcinoma cells. Description: Persistent effects after removal of the compound in EJ cells. The format is cell-based, human. Here is the method: EJ bladder carcinoma cells were treated with SP2007 (P10: 10 μM and P20: 20 μM), taxol (T10: 10 nM and T20: 20 nM) or DMSO vehicle control for either 20 hrs or 3 hrs. For the 20 hrs experiment, the percentages of remaining living cells ware measured on the end of the 20 hrs treatment time point. […] For the 3 hrs experiment, cells were washed 3 times with PBS after treatment with the and incubated for another 6 hrs in growing medium without SP2007, taxol or DMSO.

Series [4] concerns drug-resistant A549 lung cancer cell lines. As to the kind of experiment: Tumor cell killing in drug-resistant A549 lung cancer cell lines. The format is cell-based, human. Here is the method: (§1) The tumor growth inhibitory effect of piperlongumine was evaluated in a variety of human cancer cell lines. Cells were grown in ˜50-70% confluency and treated with piperlongumine and known anti-cancer agents at various concentrations (0.1-30 μM) and analyzed for cell death or viability by SRB (Sulforhodamine B) staining assay. The SRB assay is a well established assay that is used for the detection of cell death, viability or proliferation in drug screening.
Tumor cell killing by piperlongumine was also tested in drug-resistant A549 lung cancer cell lines and compared to known anti-cancer agents (see FIG. 19).

Series [5] has as its system mouse B16-F10 melanoma cells. Description: B16-F10 mouse melanoma in B6 wild type mice. It counts as in vivo. The following applies: 28 ug i.p. every 48 hours for 12 days (total 1.2 mg/kg); compared to DMSO. Here is the method:
We tested the effectiveness of piperlongumine in wild type mice using mouse B16-F10 melanoma cells. A total 2×10^6 cells were implanted subcutaneously on opposite site flanks in each of 12 B6 wild type mice in each group. When tumor masses grew to ˜5-10 mm in diameter, piperlongumine was administered intraperitoneally (28 ug per each intraperitoneal administration, total 1.2 mg/kg) every 48 hours for 12 days (6 times total).

Another series concerns human cancer cell lines. As to the kind of experiment: SRB (Sulforhodamine B) staining assay in human cancer cell lines. The format is cell-based. Here is the method: as §1
Series [6] concerns CDIP promoter containing p53 binding site. As to the kind of experiment: CDIP promoter/p53 responsive site luciferase reporter screen. The format is cell-based, human. An excerpt:
We screened a small molecule library of biologically active compounds using a Luciferase reporter gene construct fused with CDIP (Cell Death Involved p53 target) promoter/p53 responsive site as a read-out assay. p53 transcriptional activators were identified from screening the diversity set of the biologically active library using U2OS human cancer cells expressing the p53-responsive reporter. Briefly, a reporter construct was created that included the CDIP promoter operatively linked to the luc2 luciferase reporter gene. We stably expressed a human p53 reporter, luciferase2/Puro+CDIP promoter, which carries the firefly luciferase gene under the control of p53-responsive elements of CDIP promoter, in U2OS cells. Stable cell lines were produced that expressed the reporter construct, and the cells were plated in 384 well plates at ˜10,000 cells per well. Test compounds were added to the plated cells at two replicates per compound, and the cells were incubated with the compounds for 24 hours. The data were analyzed using Spotfire. The initial screen identified several compounds that activated p53-responsive reporter expression during 48 hours.
(Reporter assays use an easily measured gene product as a stand-in for the process of interest.)

Series [7] can be described thus: Long-term piperlongumine treatment toxicity in mice. It counts as in vivo, mouse. As to conditions: 2.4 mg/kg injected multiple times for 4 weeks. Here is the method: Piperlongumine (2.4 mg/kg) was injected into mice (8 mice per group) multiple times for 4 weeks. […] After 4 weeks the mice were killed and examined for changes in gross histology in target organs.

Another series deals with breast cancer tumors. As to the kind of experiment: Breast tumor in mice. It counts as in vivo, mouse. Here is the method: We tested piperlongumine in colon tumor, breast, melanoma or bladder tumor xenograft-bearing mice to evaluate the anti-tumor effect of piperlongumine. We examined EJ human bladder cancer cell xenografts (non-functional p53) to evaluate anti-tumor effects. A total of 2×10^6 EJ cells or SW480 cells were implanted subcutaneously on opposite site flanks in each of six nude/nude mice in each group. When tumor masses grew to ˜5-10 mm in diameter, piperlongumine was administered intraperitoneally (28 ug per each intraperitoneal administration, total 1.2 mg/kg) every 48 hours for 12 days (6 times total).

For series [8], the system named is patient-derived osteocarcoma samples. As to the kind of experiment: Histoculture Drug Response Assay (HDRA), osteosarcoma. It counts as cell-based, human. An excerpt:
Piperlongumine (SP2007) was compared to a variety of known anti-cancer agents in a Histoculture Drug Response Assay (HDRA). HDRA is an assay that provides a reliable approach to determine the profile of in vivo chemo-sensitivity in cancer patients. The assay allows for a three-dimensional culture, the testing of patient tumor sensitivity, the evaluation of treatment option for individual patients with solid tumor types and a high correlation to clinical drug sensitivity (Flowers J L et al., Cancer Chemother. Pharmacol. 2003 September 52 (3): 253-261). The assays were performed by Anti-cancer Inc., (San Diego, Calif.). An average of twenty samples was tested for each tumor type.

In series [9] the test system is Twist, N-cadherin and p120 catenin. Description: Western blot of Twist, N-cadherin and p120 catenin in EJ and U2OS cells. As to conditions: 10 μM and 20 μM, 20 hours. The format is cell-based, human. Here is the method:
A scheme for piperlongumine (SP2007)-mediated repression of Twist expression and its downstream targets that are involved in tumor invasion/metastasis is presented in FIG. 39A. […] U2OS and EJ cells were treated with SP2007 at two concentrations (10 μM and 20 μM) as well as with DMSO as a solvent control. After 20 hours, cell lysates were extracted and western blotting was performed against Twist, N-cadherin and p120 catenin (Zymed and Sigma Aldrich). […] Female MMTV-PyVT mice at 8-9 weeks age were chosen for the studies. When tumor sizes grew to ˜5-6 mm in diameter, SP2007 or DMSO was administered intraperitoneally (I.P., total 2.4 mg/kg of SP2007) daily for two weeks. After two weeks treatment, mice were sacrificed and mammary tumors excised and processed for histological examination.
For orientation: In western blotting, separated proteins are transferred to a membrane and probed.

Another series has as its system lung cancer tumors. Description: Lung tumor model in mice. It counts as in vivo, mouse.

`COc1cc(/C=C/C(=O)N2CCC=CC2=O)cc(OC)c1OC` [piperlongumine, N-(3,4,5,-trimethoxycinnamoyl)-Δ^3-piperidine-2-one]: the “phosphorylated gamma-H2AX and p53” value in [1] is on record as “does not result in the induction”. The “concentration in DMSO that precipitated out when diluted 1:10” value in series [2] is given as “more than 0.25 mg/ml”. Besides, the “killing of cancer cells after removal of the compound” value in [3] (3 hrs treatment, washed, another 6 hrs in medium without compound) is “still able to kill cancer cells”. Moreover, the “percentage of remaining living cells” value in [3] (20 hrs treatment, SP2007 10 and 20 μM, taxol 10 and 20 nM) was “No difference was observed”. Also, the “tumor cell growth inhibition compared to other anti-cancer drugs” value in series [4] was “more effective”. Also, the anti-tumor effect result in series [5] is recorded as “significant anti-tumor effects”. The “tumor cell growth inhibition compared to known anti-cancer drugs” value in the series with human cancer cell lines (0.1-30 μM, variety of human cancer cell lines) is listed as “as well as or better than other well-known anti-cancer drugs”. Besides, the cell growth result in the series on human cancer cell lines (glioblastoma cell lines) is reported as “inhibits cell growth”; with human cancer cell lines (human melanoma and ovarian cancer cell lines) it was “inhibits cell growth”; in the series on human cancer cell lines (human renal cancer cell lines), “inhibits cell growth”. Besides, the “luciferase activity of the CDIP promoter containing p53 binding site” value in [6] (10 μM, U2OS cells) is recorded as “significantly increased”. The “composite Z value in the screen” value in series [6] (among natural compound candidates, U2OS reporter cells) is reported as “highest composite Z value”. Moreover, the mortality result in series [7] was “None of the mice died”. Also, the “gross histology in kidney, liver and lung” value in [7] (hematoxilin and eosin staining) is on record as “no change in gross histology”. For the same compound, in the series with breast cancer tumors, the “killing of breast cancer tumors” value is recorded as “effective killing”. The “growth of patient-derived tumor samples” value in series [8] is on record as “inhibits growth”. Besides, the “expression of Twist, N-cadherin and p120 catenin” value in series [9] is reported as “inhibits expression”. Further, in the series on lung cancer tumors, the “killing of lung cancer tumors” value is given as “effective killing”.
